Test results taken from PMC12529880, “Structural mechanisms for cold‐adapted activity of phosphoenolpyruvate carboxykinase” (Protein Science : A Publication of the Protein Society, 2025).
Values belong to the compound of their own block, whether it stands above or below them.

Assays:
Format in all cases: binding
PnPEPCK [1] = target: T1, PnPEPCK (Polaromonas naphthalenivorans, UniProt A1VIE9); assay: differential scanning fluorimetry (SYPRO Orange); details: reference is the Mn-only enzyme, 21.4 μM enzyme, 1 mM MnCl2, 25 mM HEPES pH 7.4
T1 construct: gene pckG; full length, 622 residues, N-terminal His6-SUMO tag cleaved off with no additional amino acids; codon-optimised gene in pESUMO-Star; E. coli BL21(DE3); EC 4.1.1.32
Text: differential scanning fluorimetry (SYPRO Orange) on PnPEPCK

rcPEPCK = target: T2, rcPEPCK (Rattus norvegicus, UniProt P07379); assay: differential scanning fluorimetry (SYPRO Orange); details: reference is the Mn-only enzyme, 21.4 μM enzyme, 1 mM MnCl2, 25 mM HEPES pH 7.4
T2 construct: gene Pck1; full length, 622 residues, SUMO tag removed by SUMO protease; E. coli BL21(DE3)
T2 sequence (P07379 1-622): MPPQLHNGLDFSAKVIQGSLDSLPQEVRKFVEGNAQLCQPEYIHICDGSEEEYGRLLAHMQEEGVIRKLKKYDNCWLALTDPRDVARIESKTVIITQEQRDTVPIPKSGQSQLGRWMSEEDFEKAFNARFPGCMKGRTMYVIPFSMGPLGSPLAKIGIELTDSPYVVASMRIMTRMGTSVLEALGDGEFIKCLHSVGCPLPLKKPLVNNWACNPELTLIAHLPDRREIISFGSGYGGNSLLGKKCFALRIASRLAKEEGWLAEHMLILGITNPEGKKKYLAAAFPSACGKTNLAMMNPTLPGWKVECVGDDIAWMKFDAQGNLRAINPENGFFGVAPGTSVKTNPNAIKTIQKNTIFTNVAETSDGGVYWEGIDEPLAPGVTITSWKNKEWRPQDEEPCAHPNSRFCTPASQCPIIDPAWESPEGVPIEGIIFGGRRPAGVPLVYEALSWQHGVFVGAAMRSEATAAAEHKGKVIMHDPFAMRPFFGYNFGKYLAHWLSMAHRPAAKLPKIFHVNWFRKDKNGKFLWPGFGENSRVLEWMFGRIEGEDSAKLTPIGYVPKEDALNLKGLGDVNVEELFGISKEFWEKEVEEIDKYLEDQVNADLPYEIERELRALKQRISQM
Text: differential scanning fluorimetry (SYPRO Orange) on rcPEPCK

PnPEPCK [2] = target: T1, PnPEPCK; assay: X-ray crystal structure
[3] = absolute TM of Mn-oxalate complex, 214 μM oxalate
[4] = absolute TM of Mn-GTP complex, 214 μM GTP

T1 sequence (A1VIE9 entry or part of it): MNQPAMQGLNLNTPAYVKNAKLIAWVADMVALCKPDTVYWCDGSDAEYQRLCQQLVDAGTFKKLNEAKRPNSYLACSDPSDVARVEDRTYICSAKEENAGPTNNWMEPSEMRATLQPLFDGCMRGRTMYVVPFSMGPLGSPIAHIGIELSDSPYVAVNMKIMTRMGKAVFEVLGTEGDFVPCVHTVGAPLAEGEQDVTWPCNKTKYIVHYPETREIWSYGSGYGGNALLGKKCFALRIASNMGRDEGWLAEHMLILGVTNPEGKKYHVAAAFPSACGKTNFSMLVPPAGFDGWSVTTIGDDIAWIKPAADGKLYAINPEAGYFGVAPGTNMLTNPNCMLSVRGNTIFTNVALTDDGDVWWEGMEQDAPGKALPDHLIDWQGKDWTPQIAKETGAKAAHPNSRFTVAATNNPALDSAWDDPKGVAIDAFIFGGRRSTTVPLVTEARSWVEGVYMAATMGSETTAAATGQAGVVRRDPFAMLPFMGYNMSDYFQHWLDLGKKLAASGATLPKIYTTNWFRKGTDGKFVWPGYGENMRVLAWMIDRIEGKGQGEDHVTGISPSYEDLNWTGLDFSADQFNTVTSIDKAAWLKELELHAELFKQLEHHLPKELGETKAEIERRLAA

SMILES: Nc1nc2c(ncn2[C@@H]2O[C@H](COP(=O)(O)OP(=O)(O)O)[C@@H](O)[C@H]2O)c(=O)[nH]1 [GDP]
X-ray crystal structure (PnPEPCK [2]; ternary complex with PGA, closed): All three ternary complexes (βSP‐GTP, oxalate‐GTP, and PGA‐GDP)

SMILES: O=C(O)COP(=O)(O)O [PGA]
X-ray crystal structure (PnPEPCK [2]; PEP analogue, ternary complex with GDP, closed): All three ternary complexes (βSP‐GTP, oxalate‐GTP, and PGA‐GDP)

SMILES: O=C(O)C(=O)CS(=O)(=O)O [βSP]
X-ray crystal structure (PnPEPCK [2]; OAA analogue, binary Mn2+ complex and ternary complex with GTP, closed): All three ternary complexes (βSP‐GTP, oxalate‐GTP, and PGA‐GDP) in addition to βSP alone

Now from value to compound, other results behind:

PnPEPCK / T M (°C) (PnPEPCK [1]; [3]): 46.3 °C
rcPEPCK / T M (°C) (rcPEPCK; [3]): 54.4 °C
SMILES: O=C(O)C(=O)O [oxalate]
X-ray crystal structure (PnPEPCK [2]; enol-pyruvate mimic, ternary complex with GTP, closed): All three ternary complexes (βSP‐GTP, oxalate‐GTP, and PGA‐GDP)

X-ray crystal structure (PnPEPCK [2]; binary Mn2+ complex, open, P2_12_12_1 and C222_1 crystals): both with PEP bound at the active site
SMILES: C=C(OP(=O)(O)O)C(=O)O [PEP]

PnPEPCK / T M (°C) (PnPEPCK [1]; [4]): 59.5 °C
rcPEPCK / T M (°C) (rcPEPCK; [4]): 61.4 °C
SMILES: Nc1nc2c(ncn2[C@@H]2O[C@H](COP(=O)(O)OP(=O)(O)OP(=O)(O)O)[C@@H](O)[C@H]2O)c(=O)[nH]1 [GTP]
X-ray crystal structure (PnPEPCK [2]; ternary complexes with βSP or oxalate, closed): All three ternary complexes (βSP‐GTP, oxalate‐GTP, and PGA‐GDP)
